In US20110301209A1, “METHODS AND COMPOSITIONS FOR THE TREATMENT OF CANCER, TUMORS, AND TUMOR-RELATED DISORDERS” (TRAGARA PHARMACEUTICALS, INC., priority 2007, published 2011):

Assays:
[1] = Oral pharmacokinetics, all species examined; format: in vivo; details: orally administered; mice, rats, dogs, and monkeys
Protocol: Peak plasma concentrations were achieved between 1 and 3 hours after a dose of 5 mg/kg. […] Oral availability was greatest in rodent, and was reduced in dogs and monkeys (59 and 34% respectively).

in vivo = details: female, athymic nude, mouse, in vivo, po
Description: (§1) The models evaluated included MV522, A549 and H460 NSCLC. […] The experiments used a tumor growth delay (TGD) endpoint based on median time to endpoint, i.e., tumor volume of 1000-2000 mm^3, and treatments were compared to untreated controls using the Logrank test for statistical significance.

MV522 NSCLC = assay: in vivo; details: MV522
Description: as §1

A549 NSCLC = A549 NSCLC xenograft, tumor growth delay; format: in vivo, female athymic nude mice
Description: as §1

H460 NSCLC = H460 NSCLC xenograft, tumor growth delay; format: in vivo, female athymic nude mice
Description: as §1

[2] = cited from earlier work
[3] = patients taking erlotinib; cited from earlier work

CCOc1ccc(-c2cc(C)cn2-c2ccc(S(N)(=O)=O)cc2)cc1
Absorption after oral administration [1]: rapidly absorbed | MTD (in vivo): 30 mg/kg | Tumor growth delay (TGD) (MV522 NSCLC; 10 mg/kg oral daily): 19.1 days | Tumor growth delay (TGD), percent (MV522 NSCLC; 10 mg/kg oral daily): 57% | Tumor growth delay (TGD) (MV522 NSCLC; 30 mg/kg (MTD) oral daily): 32.1 days | Tumor growth delay (TGD), percent (MV522 NSCLC; 30 mg/kg (MTD) oral daily): 96% | Tumor growth delay (TGD) (A549 NSCLC; at its MTD, oral daily): 24.3 days | Tumor growth delay (TGD), percent (A549 NSCLC; at its MTD, oral daily): 62% | Tumor growth delay (TGD) (H460 NSCLC; COX-2 inhibitor monotherapy): 4.0 days | Tumor growth delay (TGD), percent (H460 NSCLC; COX-2 inhibitor monotherapy): 30%

CC(=O)O[C@@]12CO[C@@H]1C[C@H](O)[C@@]1(C)C(=O)[C@H](O)C3=C(C)[C@@H](OC(=O)[C@H](O)[C@@H](NC(=O)OC(C)(C)C)c4ccccc4)C[C@@](O)([C@@H](OC(=O)c4ccccc4)[C@H]21)C3(C)C [Docetaxel]
Tumor growth delay (TGD) (H460 NSCLC; 25 mg/kg iv weekly x3): 10.8 days | Tumor growth delay (TGD), percent (H460 NSCLC; 25 mg/kg iv weekly x3): 80% | Solubility in water [2]: practically insoluble

Cc1ccc(-c2cc(C(F)(F)F)nn2-c2ccc(S(N)(=O)=O)cc2)cc1 [celecoxib, reference compound]
Tumor growth delay (TGD) (A549 NSCLC; 100 mg/kg): 15.4 days | Tumor growth delay (TGD), percent (A549 NSCLC; 100 mg/kg): 39% | Tumor growth delay (TGD) (H460 NSCLC; COX-2 inhibitor monotherapy): 3.0 days | Tumor growth delay (TGD), percent (H460 NSCLC; COX-2 inhibitor monotherapy): 22%

C#Cc1cccc(Nc2ncnc3cc(OCCOC)c(OCCOC)cc23)c1 [erlotinib, N-(3-ethynylphenyl)-6,7-bis(2-methoxyethoxy)quinazolin-4-amine]
Patients with common side effects (rash, diarrhea, poor appetite, fatigue, shortness of breath, cough, nausea and vomiting) [3]: greater than 30 % of patients
